Tests used:
[1] = target: MET (human) (Homo sapiens, UniProt P08581); assay: MET kinase AlphaScreen assay (Km of ATP); type: biochemical; details: ATP at Km; at least duplicate experiments
How it was run: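 Biotinylated poly(Glu,Tyr) (200 ng/μL) phosphorylated by MET with ATP at an enzyme-optimized level, in 50 mM HEPES pH 7.4 with Mg2+/Mn2+ and vanadate, 1% DMSO. Reaction runs 60 min at RT. PT66 AlphaScreen donor/acceptor beads are added and signal is read after 1 h.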

[2] = target: RON (human) (Homo sapiens, UniProt Q04912); assay: RON kinase AlphaScreen assay (Km of ATP); type: biochemical; details: ATP at Km; at least duplicate experiments
Sequence of RON (human) (Q04912 25-1400): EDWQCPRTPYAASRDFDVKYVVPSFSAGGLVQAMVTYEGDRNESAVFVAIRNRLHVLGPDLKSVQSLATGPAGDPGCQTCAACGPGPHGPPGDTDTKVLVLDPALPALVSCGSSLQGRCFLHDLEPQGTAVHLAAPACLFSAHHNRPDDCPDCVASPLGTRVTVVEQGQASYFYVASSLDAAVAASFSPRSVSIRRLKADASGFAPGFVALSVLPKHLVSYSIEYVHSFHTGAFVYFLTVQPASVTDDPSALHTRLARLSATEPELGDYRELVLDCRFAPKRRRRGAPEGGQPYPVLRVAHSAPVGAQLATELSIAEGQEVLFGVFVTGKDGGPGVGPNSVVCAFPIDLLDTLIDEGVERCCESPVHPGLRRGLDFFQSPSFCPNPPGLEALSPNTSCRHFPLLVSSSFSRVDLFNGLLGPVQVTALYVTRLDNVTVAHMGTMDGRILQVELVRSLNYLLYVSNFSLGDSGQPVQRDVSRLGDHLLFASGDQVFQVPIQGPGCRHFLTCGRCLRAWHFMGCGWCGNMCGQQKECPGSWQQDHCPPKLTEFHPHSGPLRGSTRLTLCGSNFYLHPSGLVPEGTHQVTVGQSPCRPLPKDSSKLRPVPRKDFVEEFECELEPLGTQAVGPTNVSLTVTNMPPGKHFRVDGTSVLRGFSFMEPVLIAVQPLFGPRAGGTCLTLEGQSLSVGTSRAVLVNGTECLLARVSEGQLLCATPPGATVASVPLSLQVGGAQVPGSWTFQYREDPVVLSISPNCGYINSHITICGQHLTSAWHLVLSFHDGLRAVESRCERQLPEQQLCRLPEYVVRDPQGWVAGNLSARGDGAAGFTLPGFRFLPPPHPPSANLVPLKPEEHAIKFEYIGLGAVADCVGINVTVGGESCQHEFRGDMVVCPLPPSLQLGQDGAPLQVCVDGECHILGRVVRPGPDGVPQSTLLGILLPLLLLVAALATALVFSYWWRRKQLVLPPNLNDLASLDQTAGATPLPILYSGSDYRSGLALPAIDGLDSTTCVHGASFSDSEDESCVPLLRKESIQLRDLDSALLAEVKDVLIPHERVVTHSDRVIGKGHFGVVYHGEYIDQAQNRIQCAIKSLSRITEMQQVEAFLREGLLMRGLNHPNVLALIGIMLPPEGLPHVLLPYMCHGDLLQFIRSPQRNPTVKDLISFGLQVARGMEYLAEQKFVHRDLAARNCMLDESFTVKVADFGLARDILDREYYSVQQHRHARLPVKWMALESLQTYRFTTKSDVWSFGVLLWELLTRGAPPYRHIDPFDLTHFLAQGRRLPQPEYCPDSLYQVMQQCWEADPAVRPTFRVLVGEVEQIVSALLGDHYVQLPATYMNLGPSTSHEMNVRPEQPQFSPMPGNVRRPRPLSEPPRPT
How it was run: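 Human RON phosphorylated biotinylated poly(Glu,Tyr) (200 ng/μL) at Km ATP in 50 mM HEPES pH 7.4, 12.5 mM MgCl2, 1% glycerol, 0.334 mM vanadate, 1% DMSO. Reaction ran 30 min at RT after enzyme addition. Product was detected by AlphaScreen with PT66 beads after 1 h.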

Sequence of MET (human) (P08581 25-1390): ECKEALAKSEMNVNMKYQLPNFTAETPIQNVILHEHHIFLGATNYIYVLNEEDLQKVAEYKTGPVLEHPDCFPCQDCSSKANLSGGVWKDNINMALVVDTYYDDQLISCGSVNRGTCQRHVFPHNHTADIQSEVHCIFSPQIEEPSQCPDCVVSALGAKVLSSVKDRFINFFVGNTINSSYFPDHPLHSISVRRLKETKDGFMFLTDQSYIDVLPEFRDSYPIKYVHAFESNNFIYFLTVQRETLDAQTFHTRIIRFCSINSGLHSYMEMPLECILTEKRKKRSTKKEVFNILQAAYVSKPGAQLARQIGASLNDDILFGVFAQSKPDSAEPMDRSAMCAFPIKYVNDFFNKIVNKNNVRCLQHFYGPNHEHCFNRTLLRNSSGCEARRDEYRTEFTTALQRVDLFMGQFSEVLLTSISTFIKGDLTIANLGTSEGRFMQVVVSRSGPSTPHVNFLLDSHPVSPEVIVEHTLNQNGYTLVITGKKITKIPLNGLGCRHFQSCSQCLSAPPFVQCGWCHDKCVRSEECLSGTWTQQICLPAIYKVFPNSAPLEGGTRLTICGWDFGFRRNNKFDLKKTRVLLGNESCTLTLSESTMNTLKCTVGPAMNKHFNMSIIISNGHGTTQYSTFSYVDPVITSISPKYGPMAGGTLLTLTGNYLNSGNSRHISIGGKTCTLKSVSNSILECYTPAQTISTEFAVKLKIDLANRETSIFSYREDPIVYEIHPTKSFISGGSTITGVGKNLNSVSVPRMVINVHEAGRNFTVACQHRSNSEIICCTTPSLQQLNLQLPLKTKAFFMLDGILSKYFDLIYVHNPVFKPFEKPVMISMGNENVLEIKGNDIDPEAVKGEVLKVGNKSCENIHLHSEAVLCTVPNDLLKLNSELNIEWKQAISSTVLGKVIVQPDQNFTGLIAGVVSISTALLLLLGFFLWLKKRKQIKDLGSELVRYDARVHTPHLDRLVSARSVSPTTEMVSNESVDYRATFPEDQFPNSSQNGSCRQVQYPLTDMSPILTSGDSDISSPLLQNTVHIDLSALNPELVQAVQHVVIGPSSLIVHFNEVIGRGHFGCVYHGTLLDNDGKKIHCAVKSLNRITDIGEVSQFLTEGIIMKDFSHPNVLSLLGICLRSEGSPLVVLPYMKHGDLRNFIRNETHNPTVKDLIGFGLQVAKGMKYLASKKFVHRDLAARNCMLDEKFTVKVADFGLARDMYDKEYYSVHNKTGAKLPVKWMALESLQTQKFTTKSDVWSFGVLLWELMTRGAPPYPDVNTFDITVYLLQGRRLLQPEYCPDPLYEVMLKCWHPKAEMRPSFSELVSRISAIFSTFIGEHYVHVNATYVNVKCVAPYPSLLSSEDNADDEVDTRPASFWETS

Row | SMILES | IC50 [1] | IC50 [2]
1 | CCN1CCN(C(=O)NCC#Cc2cnc(N)c(-c3nc4ccccc4s3)c2)CC1 [Example 128, 4-Ethylpiperazine-1-carboxylic acid [3-(6-amino-5-benzothiazol-2-ylpyridin-3-yl)-prop-2-ynyl]-amide] | 1000 to 20000 nM | 1000 to 20000 nM
2 | NC(=O)NCC#Cc1cnc(N)c(-c2nc3ccccc3s2)c1 [Example 129, [3-(6-Amino-5-benzothiazol-2-ylpyridin-3-yl)-prop-2-ynyl]-urea] | 1000 to 20000 nM | 1000 to 20000 nM
3 | CN(C)CC(=O)NCC#Cc1cnc(N)c(-c2nc3ccccc3s2)c1 [Example 130, N-[3-(6-Amino-5-benzothiazol-2-ylpyridin-3-yl)-prop-2-ynyl]-2-dimethylaminoacetamide] | 100 to 1000 nM | 1000 to 20000 nM
4 | Nc1ncc(C#CCNC(=O)CN2CCCC2)cc1-c1nc2ccccc2s1 [Example 131, N-[3-(6-Amino-5-benzothiazol-2-ylpyridin-3-yl)-prop-2-ynyl]-2-pyrrolidin-1-ylacetamide] | 1000 to 20000 nM | 1000 to 20000 nM
5 | Nc1ncc(-c2cnn(CC(=O)N3CCOCC3)c2)cc1-c1nc2ccccc2s1 [Example 132, 2-[4-(6-Amino-5-benzothiazol-2-ylpyridin-3-yl)-pyrazol-1-yl]-1-morpholin-4-ylethanone] | 1000 to 20000 nM | 1000 to 20000 nM
6 | Nc1ncc(-c2cnn(CC(=O)N3CCCC3)c2)cc1-c1nc2ccccc2s1 [Example 133, 2-[4-(6-Amino-5-benzothiazol-2-ylpyridin-3-yl)-pyrazol-1-yl]-1-pyrrolidin-1-ylethanone] | 1000 to 20000 nM | 1000 to 20000 nM
7 | COCCNC(=O)Cn1cc(-c2cnc(N)c(-c3nc4ccccc4s3)c2)cn1 [Example 134, 2-[4-(6-Amino-5-benzothiazol-2-ylpyridin-3-yl)-pyrazol-1-yl]-N-(2-methoxyethyl)-acetamide] | 1000 to 20000 nM | 1000 to 20000 nM
8 | Nc1ncc(-c2cnn(CC(=O)N3CCC(O)C3)c2)cc1-c1nc2ccccc2s1 (stereo not drawn) [Example 135, 2-[4-(6-Amino-5-benzothiazol-2-ylpyridin-3-yl)-pyrazol-1-yl]-1-(3-hydroxypyrrolidin-1-yl)-ethanone] | 1000 to 20000 nM | 1000 to 20000 nM
9 | Nc1ncc(-c2cnn(CC(=O)NCCO)c2)cc1-c1nc2ccccc2s1 [Example 136, 2-[4-(6-Amino-5-benzothiazol-2-ylpyridin-3-yl)-pyrazol-1-yl]-N-(2-hydroxyethyl)-acetamide] | 1000 to 20000 nM | 1000 to 20000 nM
10 | CNC(=O)Cn1cc(-c2cnc(N)c(-c3nc4ccccc4s3)c2)cn1 [Example 137, 2-[4-(6-Amino-5-benzothiazol-2-ylpyridin-3-yl)-pyrazol-1-yl]-N-methylacetamide] | > 20000 nM | > 20000 nM
11 | COCCN(CCOC)C(=O)Cn1cc(-c2cnc(N)c(-c3nc4ccccc4s3)c2)cn1 [Example 138, 2-[4-(6-Amino-5-benzothiazol-2-ylpyridin-3-yl)-pyrazol-1-yl]-N,N-bis-(2-methoxyethyl)-acetamide] | 1000 to 20000 nM | 1000 to 20000 nM
12 | Nc1ncc(-c2cnn(CC(=O)N3CCC(O)CC3)c2)cc1-c1nc2ccccc2s1 [Example 139, 2-[4-(6-Amino-5-benzothiazol-2-ylpyridin-3-yl)-pyrazol-1-yl]-1-(4-hydroxypiperidin-1-yl)-ethanone] | 1000 to 20000 nM | 1000 to 20000 nM
13 | CN(C)C(=O)Cn1cc(-c2cnc(N)c(-c3nc4ccccc4s3)c2)cn1 [Example 140, 2-[4-(6-Amino-5-benzothiazol-2-ylpyridin-3-yl)-pyrazol-1-yl]-N,N-dimethylacetamide] | 1000 to 20000 nM | 1000 to 20000 nM
14 | Nc1ncc(-c2cnn(CC(=O)N3CCCCC3)c2)cc1-c1nc2ccccc2s1 [Example 141, 2-[4-(6-Amino-5-benzothiazol-2-ylpyridin-3-yl)-pyrazol-1-yl]-1-piperidin-1-ylethanone] | 1000 to 20000 nM | 1000 to 20000 nM
15 | CC(C(=O)N1CCOCC1)n1cc(-c2cnc(N)c(-c3nc4ccccc4s3)c2)cn1 (stereo not drawn) [Example 142, 2-[4-(6-Amino-5-benzothiazol-2-ylpyridin-3-yl)-pyrazol-1-yl]-1-morpholin-4-ylpropan-1-one] | 1000 to 20000 nM | 1000 to 20000 nM
16 | COCCN(CCOC)C(=O)C(C)n1cc(-c2cnc(N)c(-c3nc4ccccc4s3)c2)cn1 (stereo not drawn) [Example 143, 2-[4-(6-Amino-5-benzothiazol-2-ylpyridin-3-yl)-pyrazol-1-yl]-N,N-bis-(2-methoxyethyl)-propionamide] | 1000 to 20000 nM | 1000 to 20000 nM
17 | CNC(=O)C(C)n1cc(-c2cnc(N)c(-c3nc4ccccc4s3)c2)cn1 (stereo not drawn) [Example 144, 2-[4-(6-Amino-5-benzothiazol-2-ylpyridin-3-yl)-pyrazol-1-yl]-N-methylpropionamide] | 1000 to 20000 nM | 1000 to 20000 nM

Row | SMILES | IC50 [1] | IC50 [2]
18 | CC(C(N)=O)n1cc(-c2cnc(N)c(-c3nc4ccccc4s3)c2)cn1 (stereo not drawn) [Example 145, 2-[4-(6-Amino-5-benzothiazol-2-ylpyridin-3-yl)-pyrazol-1-yl]-propionamide] | 100 to 1000 nM | 1000 to 20000 nM
19 | COCCNC(=O)C(C)n1cc(-c2cnc(N)c(-c3nc4ccccc4s3)c2)cn1 (stereo not drawn) [Example 146, 2-[4-(6-Amino-5-benzothiazol-2-ylpyridin-3-yl)-pyrazol-1-yl]-N-(2-methoxyethyl)-propionamide] | 1000 to 20000 nM | 1000 to 20000 nM
20 | CC(C(=O)NCCO)n1cc(-c2cnc(N)c(-c3nc4ccccc4s3)c2)cn1 (stereo not drawn) [Example 147, 2-[4-(6-Amino-5-benzothiazol-2-ylpyridin-3-yl)-pyrazol-1-yl]-N-(2-hydroxyethyl)-propionamide] | 1000 to 20000 nM | 1000 to 20000 nM
21 | CC(C(=O)N(C)C)n1cc(-c2cnc(N)c(-c3nc4ccccc4s3)c2)cn1 (stereo not drawn) [Example 148, 2-[4-(6-Amino-5-benzothiazol-2-ylpyridin-3-yl)-pyrazol-1-yl]-N,N-dimethylpropionamide] | 1000 to 20000 nM | 1000 to 20000 nM
22 | CC(C(=O)N1CCC(O)C1)n1cc(-c2cnc(N)c(-c3nc4ccccc4s3)c2)cn1 (stereo not drawn) [Example 149, 2-[4-(6-Amino-5-benzothiazol-2-ylpyridin-3-yl)-pyrazol-1-yl]-1-(3-hydroxypyrrolidin-1-yl)-propan-1-one] | 1000 to 20000 nM | 1000 to 20000 nM
23 | CC(C(=O)N1CCC(O)CC1)n1cc(-c2cnc(N)c(-c3nc4ccccc4s3)c2)cn1 (stereo not drawn) [Example 150, 2-[4-(6-Amino-5-benzothiazol-2-ylpyridin-3-yl)-pyrazol-1-yl]-1-(4-hydroxypiperidin-1-yl)-propan-1-one] | 100 to 1000 nM | 100 to 1000 nM
24 | CC(C(=O)N1CCCC1)n1cc(-c2cnc(N)c(-c3nc4ccccc4s3)c2)cn1 (stereo not drawn) [Example 151, 2-[4-(6-Amino-5-benzothiazol-2-ylpyridin-3-yl)-pyrazol-1-yl]-1-pyrrolidin-1-ylpropan-1-one] | 100 to 1000 nM | 100 to 1000 nM
25 | CC(C(=O)N1CCCCC1)n1cc(-c2cnc(N)c(-c3nc4ccccc4s3)c2)cn1 (stereo not drawn) [Example 152, 2-[4-(6-Amino-5-benzothiazol-2-ylpyridin-3-yl)-pyrazol-1-yl]-1-piperidin-1-ylpropan-1-one] | 1000 to 20000 nM | 1000 to 20000 nM
26 | Nc1ncc(-c2cnn(CCC(=O)N3CCCC3)c2)cc1-c1nc2ccccc2s1 [Example 153, 3-[4-(6-Amino-5-benzothiazol-2-ylpyridin-3-yl)-pyrazol-1-yl]-1-pyrrolidin-1-ylpropan-1-one] | 100 to 1000 nM | > 20000 nM
27 | Nc1ncc(-c2cnn([C@@H]3CN[C@H](C(=O)O)C3)c2)cc1-c1nc2ccccc2s1 [Example 154, (2S,4S)-4-[4-(6-Amino-5-benzothiazol-2-ylpyridin-3-yl)-pyrazol-1-yl]-pyrrolidine-2-carboxylic acid] | ≤ 100 nM | 100 to 1000 nM
28 | CN(C)C(=O)[C@@H]1C[C@H](n2cc(-c3cnc(N)c(-c4nc5ccccc5s4)c3)cn2)CN1 [Example 155, (2S,4S)-4-[4-(6-Amino-5-benzothiazol-2-ylpyridin-3-yl)-pyrazol-1-yl]-pyrrolidine-2-carboxylic acid dimethylamide] | ≤ 100 nM | 100 to 1000 nM
29 | Nc1ncc(-c2cnn([C@@H]3CN[C@H](C(=O)N4CCCC4)C3)c2)cc1-c1nc2ccccc2s1 [Example 156, {(2S,4S)-4-[4-(6-Amino-5-benzothiazol-2-ylpyridin-3-yl)-pyrazol-1-yl]-pyrrolidin-2-yl}-pyrrolidin-1-ylmethanone] | ≤ 100 nM | ≤ 100 nM
30 | Nc1ncc(-c2cnn([C@@H]3CN[C@H](C(=O)N4CCOCC4)C3)c2)cc1-c1nc2ccccc2s1 [Example 157, {(2S,4S)-4-[4-(6-Amino-5-benzothiazol-2-ylpyridin-3-yl)-pyrazol-1-yl]-pyrrolidin-2-yl}-morpholin-4-ylmethanone] | ≤ 100 nM | ≤ 100 nM
31 | Nc1ncc(-c2cnn([C@@H]3CN[C@H](C(=O)N4CCCCC4)C3)c2)cc1-c1nc2ccccc2s1 [Example 158, {(2S,4S)-4-[4-(6-Amino-5-benzothiazol-2-ylpyridin-3-yl)-pyrazol-1-yl]-pyrrolidin-2-yl}-piperidin-1-ylmethanone] | ≤ 100 nM | ≤ 100 nM
32 | Nc1ncc(-c2cnn([C@@H]3CN[C@H](C(=O)N4CCC(O)C4)C3)c2)cc1-c1nc2ccccc2s1 (stereo partly drawn) [Example 159, {(2S,4S)-4-[4-(6-Amino-5-benzothiazol-2-ylpyridin-3-yl)-pyrazol-1-yl]-pyrrolidin-2-yl}-(3-hydroxypyrrolidin-1-yl)-methanone] | ≤ 100 nM | ≤ 100 nM
33 | Nc1ncc(-c2cnn([C@@H]3CN[C@H](C(=O)N4CCC4)C3)c2)cc1-c1nc2ccccc2s1 [Example 160, {(2S,4S)-4-[4-(6-Amino-5-benzothiazol-2-ylpyridin-3-yl)-pyrazol-1-yl]-pyrrolidin-2-yl}-azetidin-1-ylmethanone] | ≤ 100 nM | 100 to 1000 nM

Reference: patent US8178668B2, “2-aminopyridine kinase inhibitors” (OSI Pharmaceuticals, LLC, priority 2008, dated 2012)
